Results reported in ChEMBL document CHEMBL1697781, “Assessment of the health effects of chemicals in humans: II. Construction of an adverse effects database for QSAR modeling” (Curr Drug Discov Technol, 2004).

Columns and labels:
Conditions in all cases: human; call rule not given here
[1] = test system: Hepatotoxicity; assay: FDA HLAED, serum glutamic oxaloacetic transaminase (SGOT) increase
[2] = test system: Hepatotoxicity; assay: FDA HLAED, alkaline phosphatase increase
[3] = test system: Hepatotoxicity; assay: FDA HLAED, liver enzyme composite activity
[4] = test system: Hepatotoxicity; assay: FDA HLAED, serum glutamic pyruvic transaminase (SGPT) increase
[5] = test system: Hepatotoxicity; assay: FDA HLAED, gamma-glutamyl transferase (GGT) increase
[6] = test system: Hepatotoxicity; assay: FDA HLAED, lactate dehydrogenase (LDH) increase
For GGT Increase - Index Value in this document: reference of the scale not given here.
For LDH Increase - Index Value in this document: reference of the scale not given here.

Compound	SGOT Increase - Activity Score [1]	SGOT Increase - Index Value [1]	SGOT Increase - Number of Reports [1]	Alkaline Phosphatase Increase - Activity Score [2]	Alkaline Phosphatase Increase - Index Value [2]	Alkaline Phosphatase Increase - Number of Reports [2]	Composite Activity - Active [3]	Composite Activity - Marginal [3]	Composite Activity - Score [3]	SGPT Increase - Activity Score [4]	SGPT Increase - Index Value [4]	SGPT Increase - Number of Reports [4]	GGT Increase - Activity Score [5]	GGT Increase - Index Value [5]	GGT Increase - Number of Reports [5]	LDH Increase - Activity Score [6]	LDH Increase - Index Value [6]	LDH Increase - Number of Reports [6]	further results
Cc1ncc2n1-c1ccc(Cl)cc1C(c1ccccc1F)=NC2 [MIDAZOLAM]	Inactive	0.2	< 4	Inactive	0.2	< 4	0	0	Inactive	Inactive	0.2	< 4	Inactive	0	< 4	Inactive	0	< 4	
COCC1=C(C(=O)O)N2C(=O)[C@@H](NC(=O)/C(=N\OC)c3csc(N)n3)[C@H]2SC1 [CEFPODOXIME]	Inactive	1	>= 4	Inactive	1	>= 4	0	0	Inactive	Inactive	0.8	>= 4	Inactive	0.5	< 4	Inactive	0.2	< 4	
Nc1nc2c(ncn2COCCO)c(=O)[nH]1 [ACYCLOVIR]	Inactive	0.9	>= 4	Inactive	0.9	>= 4	0	0	Inactive	Inactive	0.1	< 4	Inactive	0	< 4	Inactive	0.1	< 4	
CC(=O)O[C@H]1C[C@@H]2CC[C@@H]3[C@H](CC[C@@]4(C)[C@H]3C[C@H]([N+]3(C)CCCCC3)[C@@H]4OC(C)=O)[C@@]2(C)C[C@@H]1N1CCCCC1.[Br-] [VECURONIUM BROMIDE]	Inactive	1	< 4	Inactive	0	< 4	0	0	Inactive	Inactive	1	< 4	Inactive	0	< 4	Inactive	1	< 4	
OC(Cn1cncn1)(Cn1cncn1)c1ccc(F)cc1F [FLUCONAZOLE]	Active	9.8	>= 4	Active	8.4	>= 4				Active	9.1	>= 4	Active	4.2	>= 4	Marginally Active	3	>= 4	Composite Activity - Active ([3]; Liver): 4; Composite Activity - Marginal ([3]; Liver): 1; Composite Activity - Score ([3]; Liver): Active
CC1=C(C(=O)O)N2C(=O)[C@@H](NC(=O)[C@H](N)c3ccc(O)cc3)[C@H]2SC1 [CEFADROXIL]	Inactive	0	< 4	Inactive	0	< 4	0	0	Inactive	Inactive	0	< 4	Inactive	0	< 4	Inactive	0	< 4	
COC(=O)C1=C(C)NC(C)=C(C(=O)OC(C)C)C1c1cccc2nonc12 (configuration not stated) [ISRADIPINE]	Inactive	0.8	>= 4	Inactive	0.5	< 4	0	0	Inactive	Inactive	0.7	>= 4	Inactive	0.2	< 4	Inactive	0.3	< 4	
O=C1CC[C@@]2(O)[C@H]3Cc4ccc(O)c5c4[C@@]2(CCN3CC2CC2)[C@H]1O5 [NALTREXONE]	Inactive	0	< 4	Inactive	0	< 4	0	0	Inactive	Inactive	23.3	< 4	Inactive	0	< 4	Inactive	0	< 4	
O=C(NCC1CCCCN1)c1cc(OCC(F)(F)F)ccc1OCC(F)(F)F (configuration not stated) [FLECAINIDE]	Active	9.6	>= 4	Active	8.3	>= 4	3	1	Active	Active	8.3	>= 4	Inactive	0	< 4	Marginally Active	3.2	>= 4	
